# Source: patent publication US20120308554A1, “VEGF-D/VEGFR2/3-MEDIATED REGULATION OF DENDRITES” (UNIVERSITAT HEIDELBERG, priority 2011, published 2012)
# Legend:
# VEGFD = experiment: qRT-PCR analysis of VEGFD expression in hippocampal neurons; type: cell-based, mice; details: hippocampal neurons infected with rAAV
# Protocol: Total RNA was isolated at DIV10 to DIV13 from hippocampal primary neuron cultures or isolated brain tissues with Rneasy Mini Kit (Qiagen, Hilden, Germany) including an optional Dnase I treatment at room temperature for 15 min according to manufacturer's instructions (Qiagen). 1.2 μg of extracted RNA was reverse transcribed into first strand cDNA using High Capacity cDNA Reverse Transcription kit (Applied Biosystems, Foster City, Calif.).
# Quantitative reverse transcriptase PCR (qRT-PCR) was done on an ABI7300 thermal cycler using Universal qRT-PCR master mix with TaqMan Gene Expression Assays for the indicated genes (Applied Biosystems). The following TaqMan Gene Expression Assays were used in this study: Gusb (Mm00446953_m1), cFos (Mm00487425_m1), VEGFD (Mm00438965_m1), VEGFC (Mm01202432_m1), VEGF (Mm01281449_m1), VEGFR3 (Mm01292618_m1), beta-actin (Mm00607939_s1), beta-2 microglobulin (Mm00437762_m1), CBP (Mm01342435_m1), p38 MAPK alpha (Mm00442497_m1), p38 MAPK beta (Mm00440955_m1). Expression of target genes was normalized against the expression of Gusb as endogenous control gene. Data were derived from at least 5 independent experiments.
# hippocampal neurons = experiment: Morphometric analyses (total dendritic length, Sholl analysis, spine density) of cultured hippocampal neurons; type: cell-based, mice
# Protocol: Hippocampal neurons from newborn C57BL/6 mice were cultured as known in the art. Experiments were done after a culturing period of 10 to 14 days in vitro (DIV). DNA transfection was done on DIV8 using Lipofectamine 2000 (Invitrogen, San Diego, Calif.). For the studies on dendrite morphology, neurons were analyzed 4-5 days after transfection.
# For 3D Sholl Analysis, total dendritic length and spine morphology were calculated using Object-Image freeware software with a specific set of macros (written by Dr. E. Ruthazer, McGill University, Quebec). Briefly, a z-Stack acquisition was imported, calibrated in Object-Image and manually traced. Total dendritic length was then computed. For Sholl analysis, the shell interval was set at 5 μm. All analyses were performed blind. In all in vitro experiments, for each condition, a minimum of 12 neurons from three independent preparations was analyzed. For the Golgi staining quantifications of 20 neurons for each condition from 4 different injected animals per viral construct were traced and analyzed.
# Hippocampal neurons were fixed with 4% paraformaldehyde at room temperature for 20 min. For immunostaining, primary and secondary antibodies were applied in GDB buffer (30 mM phosphate buffer [pH7.4] containing 0.2% gelatin, 0.5% Triton X-100, and 0.9 M NaCl). For the morphometric analyses, fluorescence images were acquired using a confocal laser-scanning microscope TCS SP2 (Leica, Mannheim, Germany) equipped with an inverted fluorescence microscope DM IRE2 (Leica) and Leica confocal scan software. All images were obtained with sequential acquisition setting at a resolution of 1024×1024 pixels. Each image was a z series projection of images taken at 1 μm intervals.
# C57BL/6 mice = experiment: Morris water maze; type: in vivo
# Protocol: rAAVs were delivered by stereotaxic injection into the right dorsal hippocampus of 2 months old male C57BL/6 mice. For the Golgi staining-based morphometric analysis, viral particles were unilaterally injected over a period of 20 min at the following coordinates relative to Bregma: anteroposterior, −2.1 mm; mediolateral, −1.4 mm; dorsoventral, −1.4 to −1.8 mm from the skull surface. For behavior experiments mice were injected bilaterally.
# The behavioral experiments started three weeks after stereotaxic delivery of rAAVs. Mice were habituated to the experimental room and handled once a day for three consecutive days before testing started. Two different sets of mice were used for Morris water maze and contextual fear conditioning experiments. At the end of the experiments, virus infection was assessed.
# Mice were first tested in the hidden-platform version and next in the visible-platform version of the water maze. The water maze consisted of a circular pool (120 cm diameter) filled with opaque water (water was made opaque with non-toxic white paint). The platform (10 cm diameter) was submerged 1 cm below the water level. On the first day of the hidden-platform version, mice were habituated to the water and the platform for two 60 seconds trials. In each habituation trial, mice were allowed to swim for 30 seconds and then placed on the platform for another 30 seconds. During the acquisition phase, mice were placed four times a day into a pool with a submerged platform located in a fixed position (approximately 5 minutes inter-trial interval) for four days. […] On the fifth day, mice were given a 60 second probe trial, for which the platform was not in the pool. This was followed by four more days of training. A second probe trial was given on the tenth day. In the visible-platform version, mice were trained to find the platform using a proximal visible cue (red ball placed 10 cm above the platform). […] The path of the mouse was recorded using a video tracking system (ANY-Maze, Stoelting, Ireland).
substance,measurement,setting,value
"shVEGFD: shRNA targeting mouse VEGFD mRNA (GGGCTTCAGGAGCGAACAT; SEQ ID NO: 1), expressed from rAAV vector or plasmid with U6 promoter",VEGFD mRNA levels,VEGFD,reduced VEGFD mRNA levels
same,total dendritic length and dendritic complexity (Sholl analysis),hippocampal neurons; neurons expressing the construct versus control constructs,less complex dendritic arbor and a reduction in total dendritic length
same,spine density (number of spines/20 μm),hippocampal neurons; transfected hippocampal neurons,6.52±0.51 spines/20 μm
same,Swimming speed,"C57BL/6 mice; hidden-platform acquisition, versus rAAV-shSCR",not different between the two groups
same,"time to find hidden platform (escape latency), effect of treatment","C57BL/6 mice; hidden-platform version, versus rAAV-shSCR",no effect of treatment was observed
same,time spent in quadrants during probe trial,"C57BL/6 mice; probe trial, 60 sec",spent similar amounts of time in the different quadrants
